This note sets out measurements from patent US8653100B2 (AbbVie Inc., priority 2008, dated 2014).

The target in one assay is human GlyT1c transporter (Homo sapiens (Human), UniProt P48067). In words: Radioligand binding assay using recombinant CHO cell membranes expressing human GlyT1. As to conditions: radioligand [3H]-(R)-NPTS (examples 1-19, 22-52, 54-87), read-out: radioligand binding Kiapp. The essentials:
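Competition binding of [^3H]-(R)-NPTS (0.5 nM) to CHO membranes expressing human GlyT1c (50 μg/ml protein) in pH 7.5 Hepes/NaCl buffer with 1% DMSO, 1 h at room temperature. Non-specific binding defined with 10 μM Org24598; filtration and scintillation counting, one-site fit, Ki via Cheng-Prusoff.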

The next assay addresses human GlyT1c (Homo sapiens (Human), UniProt P48067). Description: [3H]-Glycine uptake into recombinant CHO cells expressing human GlyT1. The format is cell-based. As to conditions: hGlyT1c_5_CHO cells, 200 nM [3H]-glycine. In short, it runs like this:
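hGlyT1c-expressing CHO cells plated at 20,000 cells/well and cultured 24 h; [3H]-glycine incorporation read continuously by solid-phase scintillation for up to 3 h. IC50 from four-parameter logistic fit using the linear uptake phase between 60 and 120 min.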

Counter-ions that a name gives are not always drawn.

Sequence of human GlyT1c transporter (P48067 whole entry): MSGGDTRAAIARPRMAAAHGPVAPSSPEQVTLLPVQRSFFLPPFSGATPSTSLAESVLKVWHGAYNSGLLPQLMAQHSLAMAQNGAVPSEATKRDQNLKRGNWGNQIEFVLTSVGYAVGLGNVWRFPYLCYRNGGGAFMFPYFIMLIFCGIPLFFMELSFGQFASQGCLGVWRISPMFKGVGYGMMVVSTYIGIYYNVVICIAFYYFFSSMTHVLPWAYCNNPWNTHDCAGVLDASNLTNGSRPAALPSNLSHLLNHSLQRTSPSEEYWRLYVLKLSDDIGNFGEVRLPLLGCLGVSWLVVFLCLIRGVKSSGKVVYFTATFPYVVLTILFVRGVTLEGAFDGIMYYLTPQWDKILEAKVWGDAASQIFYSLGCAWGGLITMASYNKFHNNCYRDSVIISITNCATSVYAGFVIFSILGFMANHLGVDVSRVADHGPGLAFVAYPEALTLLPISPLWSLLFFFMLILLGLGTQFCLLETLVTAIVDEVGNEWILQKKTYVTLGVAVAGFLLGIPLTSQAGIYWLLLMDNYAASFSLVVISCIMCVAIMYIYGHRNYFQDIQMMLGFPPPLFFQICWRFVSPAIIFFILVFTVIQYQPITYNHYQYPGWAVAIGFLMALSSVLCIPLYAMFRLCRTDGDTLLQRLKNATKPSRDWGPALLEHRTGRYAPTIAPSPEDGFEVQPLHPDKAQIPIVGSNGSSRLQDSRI
Sequence of human GlyT1c (P48067 whole entry): as above

What is called IC50 is the midpoint of a concentration-inhibition curve. Turning to `CCS(=O)(=O)NCCOc1ccc2c(c1)C(C1(c3ccc(Cl)cc3)CCC1)NCC2` (centres unmarked) [Example 7, Ethanesulfonic acid (2-{1-[1-(4-chloro-phenyl)-cyclobutyl]-1,2,3,4-tetrahydro-isoquinolin-7-yloxy}-ethyl)-amide hydrochloride], the Ki on human GlyT1c transporter is no more than 100 nM. For the same compound, the half-inhibitory concentration (IC50) on human GlyT1c was no more than 100 nM.
In the case of `CC(C)CS(=O)(=O)NCCOc1ccc2c(c1)C(C1(c3ccc(Cl)cc3)CCC1)NCC2` (centres unmarked) [Example 8, 2-Methyl-propane-1-sulfonic acid (2-{1-[1-(4-chloro-phenyl)-cyclobutyl]-1,2,3,4-tetrahydro-isoquinolin-7-yloxy}-ethyl)-amide hydrochloride], the Ki on human GlyT1c transporter was no more than 100 nM. Also, on human GlyT1c, the IC50 is no more than 100 nM.
Take `O=S(=O)(NCCOc1ccc2c(c1)C(C1(c3ccc(Cl)cc3)CCC1)NCC2)c1ccc2ccccc2c1` (centres unmarked) [Example 9, Naphthalene-2-sulfonic acid (2-{1-[1-(4-chloro-phenyl)-cyclobutyl]-1,2,3,4-tetrahydro-isoquinolin-7-yloxy}-ethyl)-amide hydrochloride]: on human GlyT1c transporter, the Ki is no more than 10000 nM. Besides, the IC50 at human GlyT1c is no more than 10000 nM.
`O=S(=O)(NCCOc1ccc2c(c1)C(C1(c3ccc(Cl)cc3)CCC1)NCC2)c1cccnc1` (centres unmarked) [Example 10, Pyridine-3-sulfonic acid (2-{1-[1-(4-chloro-phenyl)-cyclobutyl]-1,2,3,4-tetrahydro-isoquinolin-7-yloxy}-ethyl)-amide hydrochloride]: the Ki on human GlyT1c transporter was no more than 100 nM. The IC50 on human GlyT1c (hydrochloride) was no more than 100 nM.
In the case of `O=S(=O)(NCCOc1ccc2c(c1)C(C1(c3ccc(Cl)cc3)CCC1)NCC2)C(F)(F)F` (centres unmarked) [Example 11, N-(2-{1-[1-(4-Chloro-phenyl)-cyclobutyl]-1,2,3,4-tetrahydro-isoquinolin-7-yloxy}-ethyl)-C,C,C-trifluoro-methanesulfonamide], the Ki at human GlyT1c transporter was no more than 10000 nM. In addition, the IC50 at human GlyT1c is no more than 10000 nM.
Turning to `CS(=O)(=O)NCCOc1cc2c(cc1F)CCNC2C1(c2ccc(Cl)cc2)CCC1` (centres unmarked) [Example 12, N-(2-{1-[1-(4-Chloro-phenyl)-cyclobutyl]-6-fluoro-1,2,3,4-tetrahydro-isoquinolin-7-yloxy}-ethyl)-methanesulfonamide hydrochloride], on human GlyT1c transporter, the Ki was no more than 1000 nM. Moreover, the IC50 at human GlyT1c was no more than 100 nM.
With `O=S(=O)(NCCOc1cc2c(cc1F)CCNC2C1(c2ccc(Cl)cc2)CCC1)c1ccccc1` (centres unmarked) [Example 13, N-(2-{1-[1-(4-Chloro-phenyl)-cyclobutyl]-6-fluoro-1,2,3,4-tetrahydro-isoquinolin-7-yloxy}-ethyl)-benzenesulfonamide hydrochloride], the Ki on human GlyT1c transporter was no more than 1000 nM. At human GlyT1c, the IC50 is no more than 1000 nM.
As for `O=S(=O)(NCCOc1cc2c(cc1F)CCNC2C1(c2ccc(Cl)cc2)CCC1)c1cccnc1` (centres unmarked) [Example 14, Pyridine-3-sulfonic acid (2-{1-[1-(4-chloro-phenyl)-cyclobutyl]-6-fluoro-1,2,3,4-tetrahydro-isoquinolin-7-yloxy}-ethyl)-amide hydrochloride], the Ki on human GlyT1c transporter was no more than 100 nM. On human GlyT1c, the IC50 is no more than 100 nM.
For the compound `CCCS(=O)(=O)NCCOc1cc2c(cc1F)CCNC2C1(c2ccc(Cl)cc2)CCC1` (centres unmarked) [Example 15, Propane-1-sulfonic acid (2-{1-[1-(4-chloro-phenyl)-cyclobutyl]-6-fluoro-1,2,3,4-tetrahydro-isoquinolin-7-yloxy}-ethyl)-amide hydrochloride], at human GlyT1c transporter, the Ki is no more than 100 nM. Also, the IC50 at human GlyT1c is no more than 100 nM.
Turning to `CCCCS(=O)(=O)NCCOc1ccc2c(c1)C(C1(c3ccc(Cl)cc3)CCC1)NCC2` (centres unmarked) [Example 16, Butane-1-sulfonic acid (2-{1-[1-(4-chloro-phenyl)-cyclobutyl]-1,2,3,4-tetrahydro-isoquinolin-7-yloxy}-ethyl)-amide hydrochloride], the Ki at human GlyT1c transporter is no more than 100 nM. Besides, at human GlyT1c, the IC50 was no more than 100 nM.
Regarding `O=S(=O)(NCCOc1ccc2c(c1)C(C1(c3ccc(Cl)cc3)CCC1)NCC2)c1cccs1` (centres unmarked) [Example 17, Thiophene-2-sulfonic acid (2-{1-[1-(4-chloro-phenyl)-cyclobutyl]-1,2,3,4-tetrahydro-isoquinolin-7-yloxy}-ethyl)-amide hydrochloride], on human GlyT1c transporter, the Ki is no more than 1000 nM. For the same compound, the IC50 at human GlyT1c was no more than 100 nM.
`COc1ccccc1S(=O)(=O)NCCOc1ccc2c(c1)C(C1(c3ccc(Cl)cc3)CCC1)NCC2` (centres unmarked) [Example 18, N-(2-{1-[1-(4-Chloro-phenyl)-cyclobutyl]-1,2,3,4-tetrahydro-isoquinolin-7-yloxy}-ethyl)-2-methoxy-benzenesulfonamide hydrochloride]: the Ki at human GlyT1c transporter was no more than 10000 nM. Also, the IC50 at human GlyT1c is no more than 1000 nM.
Consider `COc1cccc(S(=O)(=O)NCCOc2ccc3c(c2)C(C2(c4ccc(Cl)cc4)CCC2)NCC3)c1` (centres unmarked) [Example 19, N-(2-{1-[1-(4-Chloro-phenyl)-cyclobutyl]-1,2,3,4-tetrahydro-isoquinolin-7-yloxy}-ethyl)-3-methoxy-benzenesulfonamide hydrochloride], for which, at human GlyT1c transporter, the Ki is no more than 10000 nM. Further, the IC50 at human GlyT1c was no more than 10000 nM.
Turning to `O=S(=O)(NCCOc1ccc2c(c1)C(C1(c3ccc(Cl)cc3)CCC1)NCC2)c1ccc(-c2ccon2)s1` (centres unmarked) [Example 22, 5-Isoxazol-3-yl-thiophene-2-sulfonic acid (2-{1-[1-(4-chloro-phenyl)-cyclobutyl]-1,2,3,4-tetrahydro-isoquinolin-7-yloxy}-ethyl)-amide hydrochloride], at human GlyT1c transporter, the Ki was no more than 100000 nM. Further, on human GlyT1c, the 50% inhibitory concentration (IC50) is no more than 10000 nM.
For `N#Cc1ccccc1S(=O)(=O)NCCOc1ccc2c(c1)C(C1(c3ccc(Cl)cc3)CCC1)NCC2` (centres unmarked) [Example 23, N-(2-{1-[1-(4-Chloro-phenyl)-cyclobutyl]-1,2,3,4-tetrahydro-isoquinolin-7-yloxy}-ethyl)-2-cyano-benzenesulfonamide hydrochloride], in that order: no more than 10000 nM and no more than 10000 nM.
On to `N#Cc1ccc(S(=O)(=O)NCCOc2ccc3c(c2)C(C2(c4ccc(Cl)cc4)CCC2)NCC3)cc1` (centres unmarked) [Example 24, N-(2-{1-[1-(4-Chloro-phenyl)-cyclobutyl]-1,2,3,4-tetrahydro-isoquinolin-7-yloxy}-ethyl)-4-cyano-benzenesulfonamide hydrochloride], for which the Ki on human GlyT1c transporter was no more than 10000 nM. Moreover, the IC50 on human GlyT1c is no more than 1000 nM.
The like results for `O=S(=O)(NCCOc1ccc2c(c1)C(C1(c3ccc(Cl)cc3)CCC1)NCC2)c1ccccc1Cl` (centres unmarked) [Example 25, 2-Chloro-N-(2-{1-[1-(4-chloro-phenyl)-cyclobutyl]-1,2,3,4-tetrahydro-isoquinolin-7-yloxy}-ethyl)-benzenesulfonamide hydrochloride] were, in that order, no more than 1000 nM and no more than 1000 nM.
Consider `O=S(=O)(NCCOc1ccc2c(c1)C(C1(c3ccc(Cl)cc3)CCC1)NCC2)c1cccc(Cl)c1` (centres unmarked) [Example 26, 3-Chloro-N-(2-{1-[1-(4-chloro-phenyl)-cyclobutyl]-1,2,3,4-tetrahydro-isoquinolin-7-yloxy}-ethyl)-benzenesulfonamide hydrochloride], for which the Ki at human GlyT1c transporter is no more than 10000 nM. Besides, the 50% inhibitory concentration (IC50) at human GlyT1c was no more than 1000 nM.
Regarding `O=S(=O)(NCCOc1ccc2c(c1)C(C1(c3ccc(Cl)cc3)CCC1)NCC2)c1ccc(Cl)cc1` (centres unmarked) [Example 27, 4-Chloro-N-(2-{1-[1-(4-chloro-phenyl)-cyclobutyl]-1,2,3,4-tetrahydro-isoquinolin-7-yloxy}-ethyl)-benzenesulfonamide hydrochloride], the Ki on human GlyT1c transporter was no more than 1000 nM. Besides, on human GlyT1c, the IC50 is no more than 1000 nM.
Regarding `O=S(=O)(NCCOc1ccc2c(c1)C(C1(c3ccc(Cl)cc3)CCC1)NCC2)C1CC1` (centres unmarked) [Example 28, Cyclopropanesulfonic acid (2-{1-[1-(4-chloro-phenyl)-cyclobutyl]-1,2,3,4-tetrahydro-isoquinolin-7-yloxy}-ethyl)-amide hydrochloride], the Ki on human GlyT1c transporter was no more than 100 nM. At human GlyT1c, the half-inhibitory concentration (IC50) was no more than 100 nM.
`O=S(=O)(NCCOc1ccc2c(c1)C(C1(c3ccc(Cl)cc3)CCC1)NCC2)c1ccc(Cl)nc1` (centres unmarked) [Example 29, 6-Chloro-pyridine-3-sulfonic acid (2-{1-[1-(4-chloro-phenyl)-cyclobutyl]-1,2,3,4-tetrahydro-isoquinolin-7-yloxy}-ethyl)-amide hydrochloride]: on human GlyT1c transporter, the Ki is no more than 1000 nM. The IC50 on human GlyT1c was no more than 1000 nM.
In the case of `O=S(=O)(NCCOc1ccc2c(c1)C(C1(c3ccc(Cl)cc3)CCC1)NCC2)c1cccc2cccnc12` (centres unmarked) [Example 30, Quinoline-8-sulfonic acid (2-{1-[1-(4-chloro-phenyl)-cyclobutyl]-1,2,3,4-tetrahydro-isoquinolin-7-yloxy}-ethyl)-amide hydrochloride], the Ki on human GlyT1c transporter is no more than 10000 nM. Further, on human GlyT1c, the IC50 was no more than 1000 nM.
As for `COc1ccc(S(=O)(=O)NCCOc2ccc3c(c2)C(C2(c4ccc(Cl)cc4)CCC2)NCC3)cc1` (centres unmarked) [Example 31, N-(2-{1-[1-(4-Chloro-phenyl)-cyclobutyl]-1,2,3,4-tetrahydro-isoquinolin-7-yloxy}-ethyl)-4-methoxy-benzenesulfonamide hydrochloride], the Ki on human GlyT1c transporter was no more than 1000 nM. The half-inhibitory concentration (IC50) at human GlyT1c is no more than 1000 nM.
As for `O=S(=O)(Cc1ccccc1)NCCOc1ccc2c(c1)C(C1(c3ccc(Cl)cc3)CCC1)NCC2` (centres unmarked) [Example 32, N-(2-{1-[1-(4-Chloro-phenyl)-cyclobutyl]-1,2,3,4-tetrahydro-isoquinolin-7-yloxy}-ethyl)-C-phenyl-methanesulfonamide hydrochloride], the Ki on human GlyT1c transporter was no more than 10000 nM. Moreover, the IC50 on human GlyT1c was no more than 10000 nM.
On to `O=S(=O)(NCCOc1ccc2c(c1)C(C1(c3ccc(Cl)cc3)CCC1)NCC2)c1ccccc1` (centres unmarked) [Example 62, N-(2-{1-[1-(4-Chloro-phenyl)-cyclobutyl]-1,2,3,4-tetrahydro-isoquinolin-7-yloxy}-ethyl)-benzenesulfonamide hydrochloride], for which the Ki on human GlyT1c transporter was no more than 1000 nM. Besides, the IC50 on human GlyT1c was no more than 1000 nM.
